Patent US8106203B2, “Assay methods using chemiluminescent detection of peroxidase” (Lumigen, Inc., priority 2001, dated 2012)

How the values were obtained:
HRP [1] = target: T1, HRP (Armoracia rusticana, UniProt P00433); experiment: Comparison of signal intensity (Example 9): chemiluminescence on reaction of reagent with HRP; type: biochemical, horseradish; settings: 5×10^−5 M compound, 0.01 M tris pH 8, 0.5 mM urea peroxide, 0.1 mM p-phenylphenol, 0.025% Tween 20; 3.5×10^−16 moles of HRP
T1 sequence (P00433 31-338): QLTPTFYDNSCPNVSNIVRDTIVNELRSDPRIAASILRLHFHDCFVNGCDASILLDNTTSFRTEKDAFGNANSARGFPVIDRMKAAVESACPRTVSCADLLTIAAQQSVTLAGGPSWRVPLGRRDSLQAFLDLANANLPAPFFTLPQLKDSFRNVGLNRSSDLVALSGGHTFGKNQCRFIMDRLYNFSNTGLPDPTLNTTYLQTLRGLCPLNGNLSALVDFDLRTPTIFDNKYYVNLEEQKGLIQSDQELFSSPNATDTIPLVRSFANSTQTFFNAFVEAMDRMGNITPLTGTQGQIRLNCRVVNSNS
Procedure: Reagent compositions comprising 0.01 M tris buffer, pH 8, 0.5 mM urea peroxide, 0.1 mM p-phenylphenol, […], 0.025% Tween 20, and 5×10^−5 M of each compound in the table below except the compound designated Ref. 1 were tested for production of chemiluminescence by reacting a 100 μL aliquot with 3.5×10^−16 moles of HRP. The reagent formulation for Ref. 1 comprised 0.05 M tris buffer, pH 8.6, 0.25 mM urea peroxide, 0.05 mM p-phenylphenol, 0.5 mM EDTA, 0.0125% Tween 20, and 3.3×10^−4 M Ref. 1. For comparison, data are provided for reference compounds 1 and 2.

HRP [2] = target: T1, HRP; experiment: Comparison of signal intensity (Example 10): maximum signal with HRP; type: biochemical, horseradish; settings: 3×10^−4 M compound, 0.025 M tris pH 8, 2.5 mM urea peroxide, 4 mM p-hydroxycinnamic acid; 3.5×10^−16 moles of HRP
Procedure: (§1) The maximum signal produced by each of compounds 14, and 27-29 was compared by reacting a 100 μL aliquot of reagent compositions comprising 0.025 M tris buffer, pH 8, 2.5 mM urea peroxide, 4 mM p-hydroxycinnamic acid, 0.5 mM EDTA, 0.1% Tween 20, and 3×10^−4 M of the test compound with 3.5×10^−16 moles of HRP. Each reagent reached maximum light intensity in about 1 minute.

HRP [3] = target: T1, HRP; experiment: Chemiluminescent detection of HRP with compound 27; type: biochemical, horseradish; settings: 3×10^−4 M compound 27, pH 8.0, p-hydroxycinnamic acid
Procedure: (§2) Reagent compositions comprising 0.025 M tris buffer, pH 8.0, 2.5 mM urea peroxide, 4 mM p-hydroxycinnamic acid, 0.5 mM EDTA, 0.1% Tween 20 and 3×10^−4 M compound 27 were tested for production of chemiluminescence by reacting triplicate 100 μL aliquots with 10 μL of HRP in the range 1.4×10^−16 to 1.4×10^−20 moles. Light production ensued upon mixing and reached maximum intensity in about 1 min. The relation between chemiluminescence intensity at 1.5 min and amount of enzyme is depicted in FIG. 2 along with the results for Ref. compound 1 at 15 min as described above.

HRP [4] = target: T1, HRP; experiment: Chemiluminescence time profile (Example 12); type: biochemical, horseradish; settings: 3×10^−4 M compound 27, 3.5×10^−16 moles of HRP; compared with reagents of Example 11
Procedure: Reagent compositions comprising 0.025 M tris buffer, pH 8.0, 2.5 mM urea peroxide, 4 mM p-hydroxy-cinnamic acid, 0.5 mM EDTA, 0.1% Tween 20, and 3×10^−4 M compound 27 were tested for production of chemiluminescence by reacting a 100 μL aliquot with 3.5×10^−16 moles of HRP.

HRP [5] = target: T1, HRP; experiment: Chemiluminescent detection of HRP with compound 14; type: biochemical, horseradish; settings: 3×10^−4 M compound 14, pH 8.0, p-hydroxycinnamic acid
Procedure: as §2, with “14” for “27”, “intensity” for “intensity at 1.5 min”, “1. For comparison,” for “2 along with”, “relationship between S-B and amount of HRP is also shown” for “results”, “reference” for “Ref.”, “having the formula:” for “at 15 min as described above.”
The results for the reference compound were measured 15 minutes after addition of 10 μL of solutions of HRP containing between 1.4×10^−15 and 1.4×10^−19 moles of enzyme to 100 μL of the reagent comprising 0.055 M tris buffer, pH 8.6, 0.25 mM urea peroxide, 0.05 mM p-phenylphenol, 0.5 mM EDTA, 0.0125% Tween 20 and 3.3×10^−4 M of Ref 1.

HRP [6] = target: T1, HRP; experiment: Comparison of signal intensity (Example 17): maximum signal with HRP; type: biochemical, horseradish; settings: 1 mM test compound (Formulation 1.0); 3.5×10^−16 moles of HRP
Procedure: as §1, with “40-51” for “14, and 27-29”, “either 1 mM, 0.3 mM, 0.15 mM or 0.05 mM” for “3×10^−4 M”, “1-3 minutes.” for “about 1 minute.”

HRP-labeled antibody [7] = target: T2, HRP-labeled antibody (Armoracia rusticana, UniProt P00433); experiment: Western blot of β-galactosidase on nitrocellulose membrane with compound 46; type: biochemical; settings: 1 mM compound 46, nitrocellulose, time points up to 120 min
T2 sequence (P00433 31-338): T1 sequence (P00433 31-338)
Procedure: A western blot assay of β-galactosidase as the test antigen was conducted according to the procedure described in U. K. Laemmli, Nature (London), 227, 680 (1970) using a PVDF membrane. β-Galactosidase standards in the range of 5000-5 pg. The detection reagent containing Compound 1 permitted detection to be performed in under 1 minute.
(§3) Western blot assays of β-galactosidase were conducted according to Example 13 but using nitrocellulose membrane and a detection reagent comprising 0.025 M tris buffer, pH 8.0, 2.5 mM urea peroxide, 4 mM p-hydroxycinnamic acid, 0.5 mM EDTA, 0.1% Tween 20, and 1 mM compound 46.

HRP [8] = target: T1, HRP; experiment: Stability of working solutions by solution assay; type: physicochemical, horseradish; set-up: key to Activity / Activity (Control): maximum chemiluminescence intensity (arbitrary light units); settings: for Activity (Control): fresh reagent from components stored at 4° C.; for Activity: stored working solution
Procedure: Reagent stability of the working solutions of compound 53 and compound 46 was assessed by preparing the working solution by combining 50 μL aliquots of the two component solutions and storing the mixed solutions at 4° C. or room temperature. The working solution contained 0.025 M tris buffer, pH 8, 2.5 mM urea peroxide, 4 mm p-hydroxycinnamic acid, 0.5 mM EDTA, 0.1% Tween 20, and 0.05 mM of the substrate. Chemiluminescent assays were run with 3.5×10^−16 moles of HRP at 25° C. Maximum intensity results were compared to the values obtained with fresh reagent prepared from the individual components stored at 4° C. […] The composition containing compound 53 was unchanged after four months at 4° C., that containing compound 46 was unchanged after 9 months at 4° C.

HRP-labeled antibody [9] = target: T2, HRP-labeled antibody; experiment: Stability of working solution by western blot assay; type: physicochemical; settings: stored 1 year at 4° C.
Procedure: as §3
A further measure of the long term stability of a working solution containing compound 46 was provided by serial western blot assays over a 1 year period according to the procedure in example 18. FIG. 9 depicts the performance comparison in the western blot protocol described above using fresh vs. 1 year old working solutions.

peroxidase = settings: reacted with HRP; disclosed in U.S. Pat. No. 5,922,558; cited from earlier work

CSC(SCCCS(=O)(=O)[O-])=C1c2ccccc2N(Cc2ccccc2)c2ccccc21.[Na+] [Compound 27]
Signal/Background (HRP [1]): 533 | Signal/Background (HRP [2]): 6933 | time to reach maximum intensity (HRP [3]): about 1 min | relative chemiluminescence time profile (HRP [4]): rapid generation of chemiluminescence and higher signal level

CSC(SCCCS(=O)(=O)[O-])=C1c2ccccc2N(c2ccccc2)c2ccccc21.[Na+] [Compound 14]
Signal/Background (HRP [1]): 688 | Signal/Background (HRP [2]): 2491 | time to reach maximum intensity (HRP [5]): about 1 min

O=S(=O)([O-])CCCOC1CSC(=C2c3ccccc3N(c3ccccc3)c3ccccc32)SC1.[Na+] (stereo not shown) [Compound 46]
Signal/Background (HRP [6]): 13000 | detection of β-gal (HRP-labeled antibody [7]): excellent sensitivity | % Rel. Activity (Control) (HRP [8]; 2 months): 101.6% | % Rel. Activity (Control) (HRP [8]; 3.5 months): 100.2% | % Rel. Activity (Control) (HRP [8]; 4 months): 100.0% | % Rel. Activity (Control) (HRP [8]; 6 months): 97.0% | % Rel. Activity (Control) (HRP [8]; 9 months): 99.3% | working solution composition after storage (HRP [8]; 9 months at 4° C.): unchanged | % Rel. Activity (Control) (HRP [8]; 12 months): 90.9% | Activity (Control) (HRP [8]; 2 months): 610 | Activity (Control) (HRP [8]; 3.5 months): 613 | Activity (Control) (HRP [8]; 4 months): 600 | Activity (Control) (HRP [8]; 6 months): 660 | Activity (Control) (HRP [8]; 9 months): 720 | Activity (Control) (HRP [8]; 12 months): 660 | Activity (HRP [8]; 2 months): 620 | Activity (HRP [8]; 3.5 months): 614 | Activity (HRP [8]; 4 months): 600 | Activity (HRP [8]; 6 months): 640 | Activity (HRP [8]; 9 months): 715 | Activity (HRP [8]; 12 months): 600 | reagent performance on storage of working solution (HRP [8]; up to three weeks at room temperature, 0.05 mM substrate): no deterioration of reagent performance | western blot performance, fresh vs. 1 year old working solution (HRP-labeled antibody [9]): no diminution in blotting assay sensitivity

COC(Sc1ccccc1)=C1c2ccccc2N(C)c2ccccc21 [drawing 18]
time to reach maximum chemiluminescence intensity (peroxidase): 7 min
